Consider one compound from patent publication US7510825B2, “Kits and methods for detection of apoptotic cells” (NST NeuroSurvival Technologies Ltd, priority 2000, dated 2009).

In assay [1] the test system is L5178-S (LY-S) murine lymphoma tumors. The assay can be described thus: Detection by DDC of tumor cell apoptosis in lymphoma-bearing mice after Taxol. Format: in vivo. As to conditions: Taxol 20 mg/kg treated vs control animals; DDC i.v. 24 h after Taxol, sacrifice 2 h later. Here is the method: (§1) A. Administration of DDC in-vivo: Injection of 200 μl of DDC intravenously. Following 1-2 hours, animal is sacrificed, and the desired organ is placed in a test tube or on a small plate, suitable for liquid nitrogen freezing. The plate is then covered with an aluminum foil, and transferred to liquid nitrogen. Following 5-30 minutes the specimen is being frozen to −80° C. and kept at −80° C. for at least 16 hr. B. Analysis of the Specimen: • a. Whole organ imaging Ex-vivo whole organ fluorescence imaging may be carried out on freshly excised specimen, that can be analyzed under a stereomicroscope (such as Leica MZ FL III, Leica Switzerland). DDC may be visualized using 360cx and >420cm nm filter set. Emitted fluorescence can be imaged using appropriate camera and software, such as a Leica DC 300F Distal camera and images can be processed and analyzed by Leica QWin Lite software. • b. Histological analysis, from the frozen organ or tissue, 4 μm cryosections are prepared on slides. Analysis of the tissue sections can be performed using a fluorescence microscope with a UV filter characterized by excitation at 360-370 nm (band pass) and emission at 420 nm (barrier filter) In case that staining of the examined tissue is desired, the following procedures can be applied: […]

The subject of another assay is C6-Glioma tumor. The experiment in a line: Accumulation of DDC in apoptotic cells of glioma following irradiation. Format: in vivo, mice. As to conditions: 20 h after radiation (6 gray).
The subject of another assay is BCL1 bone marrow cells. The experiment in a line: Detection by DDC of apoptosis in BCL1 bone marrow cells following chemotherapy. Format: in vivo, mice. Here is the method:
as §1

Assay [2] deals with neurons of the ischemic region. The experiment in a line: Detection by DDC of permanent ischemia by MCA cauterization. As to conditions: DDC i.v. 22 hours from the insult; adjacent slides. Format: in vivo, mice. Here is the method:
A. Administration of DDC in-vivo: Injection of 200 μl of DDC intravenously. Following 1-2 hours, animal is sacrificed, and the desired organ is placed in a test tube or on a small plate, suitable for liquid nitrogen freezing. The plate is then covered with an aluminum foil, and transferred to liquid nitrogen. Following 5-30 minutes the specimen is being frozen to −80° C. and kept at −80° C. for at least 16 hr. B. Analysis of the Specimen: • a. Whole organ imaging Ex-vivo whole organ fluorescence imaging may be carried out on freshly excised specimen, that can be analyzed under a stereomicroscope (such as Leica MZ FL III, Leica Switzerland). DDC may be visualized using 360cx and >420cm nm filter set. Emitted fluorescence can be imaged using appropriate camera and software, such as a Leica DC 300F Distal camera and images can be processed and analyzed by Leica QWin Lite software. • b. Histological analysis, from the frozen organ or tissue, 4 μm cryosections are prepared on slides. Analysis of the tissue sections can be performed using a fluorescence microscope with a UV filter characterized by excitation at 360-370 nm (band pass) and emission at 420 nm (barrier filter) In case that staining of the examined tissue is desired, the following procedures can be applied:
A permanent ischemia by MCA cauterization was induced in Balb/c mice (Harlan laboratories). […]

Assay [3] relates to renal tubular cells, ischemic kidney. The assay can be described thus: Renal cell injury (ischemia-reperfusion) detection by DDC. Format: in vivo, rats. Here is the method: as §1
For assay [4], the system named is tubular epithelial cells of the septic kidney. The experiment in a line: Focal uptake of DDC in the septic kidney (cecal ligature and perforation). Format: in vivo, mice. As to conditions: 24 h after cecal ligature and puncture. Here is the method: as §1
The test system of assay [5] is cardiomyocytes of the ischemic heart. The experiment in a line: Detection by DDC of ischemic damage in the heart following ischemia-reperfusion. Format: in vivo, mice. As to conditions: ischemia 40 minutes, reperfusion 90 minutes; DDC at onset of ischemia. Here is the method:
Ischemia/Reperfusion was induced in male Swiss mice by ligation and subsequent release of a suture around the left anterior descending coronary artery. Ischemia was for 40 minutes followed by reperfusion of 90 minutes. DDC was injected to the Jugular vein at the onset of ischemia. Uptake of DDC was followed at real time in the beating heart using a Laica stereomycroscope. Pictures were taken at the end point of the reperfusion (90 minutes) and collected by Hamamatsu CCD camera. For inhibition by caspase inhibitors, animals were injected with a pan-Caspase inhibitor in two doses of 10 mg/kg given at the time of reperfusion. […] Figures (C) and (D) Cryosections prepared from the heart that was collected at the end point of the experiments DDC fluorescence can be viewed in single apoptotic cardiomyocites. This example support the role of DDC in detecting ischemic cells in the level of a single apoptotic cell.

In the case of `CN(C)c1cccc2c(S(=O)(=O)NC(CSSCC(NS(=O)(=O)c3cccc4c(N(C)C)cccc34)C(=O)O)C(=O)O)cccc12` (centres unmarked) [DDC], the “DDC uptake into tumors” value in assay [1] was “marked increase of DDC uptake”. Further, in the assay on C6-Glioma tumor, the “binding to viable tumor cells or normal brain tissue” value was “not binding”. For the same compound, the “labeling of cells undergoing cell death within the glioma tumor” value in the assay on C6-Glioma tumor is “specifically and selectively labeled cells undergoing cell death”. The “fluorescent labeling of bone marrow cells” value with BCL1 bone marrow cells (24 hr following Cyclophosphamide 300 mg/kg and Taxol 20 mg/kg) was “a significant number of apoptotic/necrotic cells are labeled”; with BCL1 bone marrow cells (non-treated group), “no fluorescent labeling”. Also, the “correlation of DDC staining of single neurons with H&E staining” value in assay [2] is recorded as “high correlation with H&E staining”. In addition, the “DDC uptake, ischemic kidney compared with control kidney” value in assay [3] (45 min renal artery clamping, DDC 20 h after reperfusion, ex-vivo whole organ fluorescence imaging) was “Significant increase in DDC uptake”. Further, the entries for the “DDC staining versus TUNEL staining” value in assay [3] (kidney sections after ischemia-reperfusion) and in assay [4] were “Several cells were stained with DDC but were negative for TUNEL staining” and “detected early apoptotic cells where TUNEL staining is still negative”, respectively. Also, the “identification of focal tubular cell injury” value in assay [4] (compared with H&E) is on record as “clearly identified by DDC staining”. In addition, in assay [5], the “uptake of DDC in cardiomyocytes” value was “identified in individual cadiomyocites”.
